The source of these data is ChEMBL document CHEMBL1139128, “Structure-activity relationship analysis of a novel necroptosis inhibitor, Necrostatin-5” (Bioorg Med Chem Lett, 2007).

Active and inactive are the calls of the source. No rule for the calls is given here.

The EC50 is the midpoint of the concentration-response curve.

This test deals with Jurkat. The experiment in a line: Inhibition of TNF-alpha-induced necroptosis in FADD-deficient Jurkat T cells. It is filed as functional, cell-based. More on the design: concentration or dose not given beside the values. To be noted: for EC50: Jurkat.

As to `CCCCCCCCCCCCCCc1sc2nc(SC)n(-c3ccc(OC)cc3)c(=O)c2c1C`, the outcome (Homo sapiens) was inactive.
For `COc1ccc(-n2c(SC)nc3sc(C)c(C)c3c2=O)cc1`, the outcome (Homo sapiens) was inactive.
Turning to `CCc1c(C)sc2nc(SC)n(-c3ccc(OC)cc3)c(=O)c12`, the result (Homo sapiens) was inactive.
Take `CSc1nc2sc3c(c2c(=O)n1-c1ccc(Cl)c(Cl)c1)CCCC3`: under “Homo sapiens”, the outcome was inactive.
For the compound `COc1ccc(-n2c(SC(=O)c3ccccc3)nc3sc4c(c3c2=O)CCCC4)cc1`, where the note is “Homo sapiens”, the result was inactive.
Compound `COc1ccc(-n2c(SCC#N)nc3sc4c(c3c2=O)CCC4)cc1` displayed an Activity of 100%. Moreover, the response (Homo sapiens) was half-maximal at 0.45 µM (EC50).
Turning to `COc1ccc(-n2c(SCC#N)nc3sc(C)cc3c2=O)cc1`, the result (Homo sapiens) was inactive.
Compound `CSc1nc2sc(C)c(C)c2c(=O)n1-c1ccc(F)cc1` returned an Activity of 69.2%. Also, where the note is “Homo sapiens”, it took 2.6 µM to reach a half-maximal effect (EC50).
Regarding `N#CCSc1nc2sc3c(c2c(=O)n1-c1ccccc1)CCC3`, where the note is “Homo sapiens”, the result was inactive.
Consider `Cc1sc2nc(SCC#N)n(-c3ccc(OCc4ccccc4)cc3)c(=O)c2c1C`, for which the outcome (Homo sapiens) was inactive.
`COc1ccc(-n2c(SCC#N)nc3c(c2=O)C2CCCCCC2S3)cc1` (stereo unspecified) returned an Activity of 83%. Also, a half-maximal effect (Homo sapiens) (EC50) was put at 0.96 µM.
The compound `Cc1ccc(-n2c(SCC#N)nc3sc4c(c3c2=O)CCCC4)cc1C` gave an Activity of 45%. Moreover, under “Homo sapiens”, the EC50 was determined as 16.7 µM.
The matching figures for `CCOc1ccc(-n2c(SCC#N)nc3sc4c(c3c2=O)CCCC4)cc1`: 83.8% and 0.55 µM.
Take `COc1ccc(-n2c(SCCC#N)nc3sc4c(c3c2=O)CCCC4)cc1`: the Activity came out at 70%. For the same compound, for the setting “Homo sapiens”, a half-maximal effect (EC50) was put at 5.28 µM.
On to `CCOc1ccc(-n2c(SCC#N)nc3sc4ccccc4c3c2=O)cc1`, for which the result (Homo sapiens) was inactive.
The compound `Cc1sc2nc(SCC#N)n(-c3ccc(F)cc3)c(=O)c2c1C` returned an Activity of 87.6%. Further, it took 4.43 µM to reach a half-maximal effect (Homo sapiens) (EC50).
`N#CCSc1nc2sc3c(c2c(=O)n1-c1ccc(F)cc1)CCC3` yielded an Activity of 88.7%. Where the note is “Homo sapiens”, the EC50 came to 0.89 µM.
Regarding `COc1ccc(-n2c(SCC#N)nc3sc4ccccc4c3c2=O)cc1`, the Activity is 83.3%. For the setting “Homo sapiens”, it took 0.18 µM to reach a half-maximal effect (EC50).
In the case of `COc1ccc(-n2c([S+](C)[O-])nc3sc4c(c3c2=O)CCCC4)cc1` (stereo unspecified), under “Homo sapiens”, the result was inactive.
Regarding `CCCCSc1nc2sc3c(c2c(=O)n1-c1ccc(OC)cc1)CCCC3`, the result (Homo sapiens) was inactive.
On to `N#CCSc1nc2sc3ccccc3c2c(=O)n1-c1ccc2c(c1)OCCO2`, for which the Activity amounted to 100%. The EC50 (Homo sapiens) turned out to be 0.15 µM.
Consider `C#CCSc1nc2sc3c(c2c(=O)n1-c1ccc(OC)cc1)CCCCC3`, for which the result (Homo sapiens) was inactive.
The same measure, in the same setting: the entry for `COc1ccc(-n2c(SCC#N)nc3sc4c(c3c2=O)CC(C)CC4)cc1OC` (stereo unspecified) is “inactive”.
In turn, `N#CCSc1nc2sc3c(c2c(=O)n1-c1ccc2c(c1)OCO2)CCCC3` showed an Activity of 100%. Also, the response (Homo sapiens) was half-maximal at 0.89 µM (EC50).
Regarding `CSc1nc2sc3c(c2c(=O)n1-c1ccc(OCc2ccccc2)cc1)CCCC3`, the outcome (Homo sapiens) was inactive.
With `COc1ccc(-n2c(SC)nc3sc4c(c3c2=O)CCCCC4)cc1`, the result (Homo sapiens) was inactive.
On to `CCSc1nc2sc3c(c2c(=O)n1-c1ccc(OC)cc1)CCCC3`, for which the result (Homo sapiens) was inactive.
For `COc1ccc(-n2c(SC[N+](=O)[O-])nc3sc4c(c3c2=O)CCC4)cc1`, under “Homo sapiens”, the outcome was inactive.
As to `COc1ccc(-n2c(SCc3ccccc3)nc3sc4c(c3c2=O)CCCC4)cc1`, under “Homo sapiens”, the result was inactive.
With `CCSc1nc2sc3c(c2c(=O)n1-c1ccc(OC)cc1)CCC3`, the outcome (Homo sapiens) was inactive.
Consider `CCCc1sc2nc(SC)n(-c3ccc(OC)cc3)c(=O)c2c1C`, for which the result (Homo sapiens) was inactive.
For the compound `CSc1nc2sc3c(c2c(=O)n1-c1ccc2c(c1)OCO2)CCC3`, the result (Homo sapiens) was inactive.
Compound `CCOc1ccc(-n2c(SCC#N)nc3sc(C)c(C)c3c2=O)cc1` gave an Activity of 97%. The EC50 (Homo sapiens) turned out to be 7.77 µM.
Regarding `CSc1nc2sccc2c(=O)n1-c1ccccc1`, where the note is “Homo sapiens”, the outcome was inactive.
`Cc1sc2nc(SCC#N)n(-c3ccc4c(c3)OCO4)c(=O)c2c1C` registered an Activity of 100%. Moreover, under “Homo sapiens”, the concentration for a half-maximal effect (EC50) worked out at 1.65 µM.
With `N#CCSc1nc2sc3c(c2c(=O)n1-c1ccccc1)CCCCC3`, where the note is “Homo sapiens”, the outcome was inactive.
On to `COc1ccc(-n2c(SCC(=O)Nc3ccccc3C(F)(F)F)nc3sc4c(c3c2=O)CCCC4)cc1`, for which the result (Homo sapiens) was inactive.
The same measure, in the same setting: the value for `N#CCSc1nc2sc3c(c2c(=O)n1-c1ccc(OCc2ccccc2)cc1)CCCC3` was “inactive”.
`COc1cccc(-n2c(SCC#N)nc3sc4c(c3c2=O)CCCC4)c1`: the Activity was 87.7%. The EC50 (Homo sapiens) turned out to be 1.46 µM.
The like results for `Cc1ccc(-n2c(SCC#N)nc3sc(C)c(C)c3c2=O)cc1C` were, in that order, 90.7% and 2.79 µM.
With `COc1ccc(-n2c(SC)nc3sc4c(c3c2=O)CCCC4)c(OC)c1`, the outcome (Homo sapiens) was inactive.
Turning to `COc1ccc(-n2c(SC)nc3sc4c(c3c2=O)CC(C)CC4)cc1OC` (stereo unspecified), the result (Homo sapiens) was inactive.
In turn, `CCc1c(C)sc2nc(SCC#N)n(-c3ccc(OC)cc3)c(=O)c12` gave an Activity of 100%. For the same compound, the EC50 (Homo sapiens) is 1.08 µM.
As for `CSc1nc2sc3c(c2c(=O)n1-c1ccc(F)cc1)CCCCC3`, the outcome (Homo sapiens) was inactive.
On to `C=CCSc1nc2sc3c(c2c(=O)n1-c1ccc(OC)cc1)CCCC3`, for which the outcome (Homo sapiens) was inactive.
Regarding `N#CCSc1nc2sc3c(c2c(=O)n1-c1ccccc1)CCCC3`, the result (Homo sapiens) was inactive.
In the case of `COc1ccc(-n2c(SCc3ccc([N+](=O)[O-])cc3)nc3sc4c(c3c2=O)CCCC4)cc1`, the outcome (Homo sapiens) was inactive.
`CSc1nc2sc3c(c2c(=O)n1-c1ccc(F)cc1)CCC3` gave an Activity of 95%. In addition, where the note is “Homo sapiens”, a half-maximal effect (EC50) was put at 3 µM.
`CSc1nc2sc3c(c2c(=O)n1-c1ccc(F)cc1)CCCC3`: the Activity turned out to be 61.2%. The compound further came in with an EC50 (Homo sapiens) of 1.57 µM.
For the compound `C#CCSc1nc2sc3c(c2c(=O)n1-c1ccc(OC)cc1)CCC3`, the Activity is on record as 63.4%. The same compound displayed an EC50 (Homo sapiens) of 2.49 µM.
`COc1ccc(-n2c(SC)nc3sc4c(c3c2=O)CCC4)cc1` displayed an Activity of 97%. This compound also showed a half-maximal effective concentration (EC50) (Homo sapiens) of 0.24 µM.
In the case of `CSc1nc2sc3c(c2c(=O)n1-c1ccc(C)c(C)c1)CCCC3`, the Activity is 38%. This compound showed an EC50 (Homo sapiens) of 16.7 µM.
On to `CSc1nc2sc3c(c2c(=O)n1-c1ccc(Br)cc1)CCCC3`, for which, where the note is “Homo sapiens”, the result was inactive.
For the compound `CSc1nc2sc3ccccc3c2c(=O)n1-c1ccc(OC(F)(F)F)cc1`, where the note is “Homo sapiens”, the outcome was inactive.
As to `CCc1sc2nc(SCC#N)n(-c3ccc(F)cc3)c(=O)c2c1C`, the result (Homo sapiens) was inactive.
